Like-named read-outs stand apart in the source and are kept apart here.
What was measured:
GRK5 [1] = molecular target: T1, GRK5 (Homo sapiens, UniProt P34947); assay: Intact protein MS, adduct formation with GRK5; details: for Adduct by MS: incubation time needed to observe adduct formation with GRK5: intact mass MS; for covalent adduct formation with GRK5 (in words): intact MS
GRK5 [2] = molecular target: T1, GRK5; assay: Covalent inhibition kinetic analysis
GRK5 [3] = molecular target: T1, GRK5; assay: Kinome-wide selectivity panel, GRK5; details: read-out: inhibition of GRK5
[4] = Thermodynamic solubility, miniaturized shake-flask; type: physicochemical
[5] = Microsomal stability, HLM; type: in vitro ADME; details: human, human liver microsomes
PKA = PKA (Homo sapiens, UniProt P17612); assay: PKA inhibition assay, ADP-Glo
bovine GRK2 = molecular target: T2, bovine GRK2 (Bos taurus, UniProt P21146); assay: Radiometric GRK2 inhibition assay; type: biochemical
T2 sequence (P21146 1-689): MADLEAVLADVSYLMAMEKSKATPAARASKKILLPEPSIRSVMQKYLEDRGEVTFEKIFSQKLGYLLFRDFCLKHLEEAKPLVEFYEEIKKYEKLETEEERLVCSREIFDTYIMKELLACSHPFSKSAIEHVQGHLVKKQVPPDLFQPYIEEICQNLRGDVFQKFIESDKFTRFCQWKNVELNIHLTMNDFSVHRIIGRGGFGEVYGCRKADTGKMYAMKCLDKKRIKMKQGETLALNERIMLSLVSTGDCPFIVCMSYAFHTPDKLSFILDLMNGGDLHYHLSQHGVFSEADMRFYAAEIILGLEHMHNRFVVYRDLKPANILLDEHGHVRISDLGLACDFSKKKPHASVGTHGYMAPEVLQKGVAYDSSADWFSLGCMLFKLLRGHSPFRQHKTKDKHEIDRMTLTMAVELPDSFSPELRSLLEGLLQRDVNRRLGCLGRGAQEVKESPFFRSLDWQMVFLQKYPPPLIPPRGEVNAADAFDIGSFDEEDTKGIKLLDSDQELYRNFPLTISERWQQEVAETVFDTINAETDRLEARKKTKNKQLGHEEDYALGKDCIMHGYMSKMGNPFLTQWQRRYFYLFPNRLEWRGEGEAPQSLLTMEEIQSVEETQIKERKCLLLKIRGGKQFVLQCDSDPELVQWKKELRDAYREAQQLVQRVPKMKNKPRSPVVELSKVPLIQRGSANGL

[6] = cited from earlier work
[7] = test system: rodent model of hypertrophy; details: cited from earlier work

T1 sequence (P34947 whole entry): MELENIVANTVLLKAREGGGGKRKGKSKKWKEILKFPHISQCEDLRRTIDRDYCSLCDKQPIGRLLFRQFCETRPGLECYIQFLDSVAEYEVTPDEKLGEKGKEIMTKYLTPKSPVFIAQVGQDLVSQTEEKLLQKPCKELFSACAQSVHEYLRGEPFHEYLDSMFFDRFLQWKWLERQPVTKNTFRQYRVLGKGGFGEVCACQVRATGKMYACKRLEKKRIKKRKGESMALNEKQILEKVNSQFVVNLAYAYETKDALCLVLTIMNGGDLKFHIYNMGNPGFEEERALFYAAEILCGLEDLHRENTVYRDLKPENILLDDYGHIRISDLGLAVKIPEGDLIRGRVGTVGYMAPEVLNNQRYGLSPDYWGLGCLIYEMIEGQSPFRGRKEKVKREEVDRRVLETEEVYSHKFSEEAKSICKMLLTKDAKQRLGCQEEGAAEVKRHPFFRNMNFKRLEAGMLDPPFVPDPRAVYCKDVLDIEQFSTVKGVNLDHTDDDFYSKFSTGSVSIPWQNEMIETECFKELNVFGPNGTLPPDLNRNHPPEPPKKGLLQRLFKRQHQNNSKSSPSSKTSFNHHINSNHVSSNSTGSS

## C=CCCNC(=O)c1c(C)[nH]c(/C=C2\C(=O)Nc3ccc(C(=O)N[C@H](C)c4ccccc4)cc32)c1C (mixture of isomers) [Compound 5f, (R,Z)-3-((4-(but-3-en-1-ylcarbamoyl)-3,5-dimethyl-1H-pyrrol-2-yl)methylene)-2-oxo-N-(1-phenylethyl)indoline-5-carboxamide]
GRK5 [1]; Table 1
  Adduct by MS: incubation time needed to observe adduct formation with GRK5: >30 min

## CC#CC(=O)Nc1c(C)[nH]c(/C=C2\C(=O)Nc3ccc(C(=O)N[C@H](C)c4ccccc4)cc32)c1C (mixture of isomers) [Compound 9a, (R,Z)-3-((4-(but-2-ynamido)-3,5-dimethyl-1H-pyrrol-2-yl)methylene)-2-oxo-N-(1-phenylethyl)indoline-5-carboxamide]
GRK5 [1]; Table 1
  Adduct by MS: incubation time needed to observe adduct formation with GRK5: >180 min
GRK5 [1]; 30 min incubation
  covalent adduct formation with GRK5 (in words): unreactive

## Cc1[nH]c(/C=C2\C(=O)Nc3ccc(C(=O)N[C@H](C)c4ccccc4)cc32)c(C)c1NC(=O)CBr (mixture of isomers) [Compound 9g, (R,Z)-3-((4-(2-bromoacetamido)-3,5-dimethyl-1H-pyrrol-2-yl)methylene)-2-oxo-N-(1-phenylethyl)indoline-5-carboxamide]
GRK5 [2]
  kinact: > 0.0167 s⁻¹
GRK5 [1]; Table 1, 30 min incubation
  Adduct by MS: percent adduct: 70% 30 min
GRK5 [1]; 30 min incubation
  covalent adduct formation with GRK5 (in words): rapidly reacted with GRK5
GRK5 [3]
  inhibition at 0.01 µM: 50%

## Cc1[nH]c(/C=C2\C(=O)Nc3ccc(C(=O)N[C@H](C)c4ccccn4)cc32)c(C)c1NC(=O)CCl (mixture of isomers) [Compound 9l, (R,Z)-3-((4-(2-chloroacetamido)-3,5-dimethyl-1H-pyrrol-2-yl)methylene)-2-oxo-N-(1-(pyridin-2-yl)ethyl)indoline-5-carboxamide]
[4]
  solubility improvement over 9e: 3.5 fold

## Cc1[nH]c(/C=C2\C(=O)Nc3ccc(C(=O)N[C@H](C)c4ccc(F)cc4)cc32)c(C)c1NC(=O)CCl (stereo in doubt) [Compound 9j, (R,Z)-3-((4-(2-chloroacetamido)-3,5-dimethyl-1H-pyrrol-2-yl)methylene)-N-(1-(4-fluorophenyl)ethyl)-2-oxoindoline-5carboxamide]
[5]
  half-life: 18.9 min

## Cc1[nH]c(/C=C2\C(=O)Nc3ccc(C(=O)N[C@@H](c4ccccc4)C(C)C)cc32)c(C)c1NC(=O)CCl (stereo in doubt) [Compound 9s, (R,Z)-3-((4-(2-chloroacetamido)-3,5-dimethyl-1H-pyrrol-2-yl)methylene)-N-(2-methyl-1-phenylpropyl)-2-oxoindoline-5-carboxamide]
PKA
  IC50: > 250 µM
Bovine GRK2
  IC50: 23 ± 20 µM

## Cc1[nH]c(/C=C2\C(=O)Nc3ccc(C(=O)NC(C)(C)c4ccccc4)cc32)c(C)c1NC(=O)CCl [Compound 9r, (Z)-3-((4-(2-chloroacetamido)-3,5-dimethyl-1H-pyrrol-2-yl)methylene)-2-oxo-N-(2-phenylpropan-2-yl)indoline-5-carboxamide]
Bovine GRK2
  IC50: 190 ± 70 µM

## NCCCNCCCCNCCCNc1cc2nc(-c3ccccc3Cl)[nH]c(=O)c2cc1F [KR-39038]
[6]
  bioavailability (in words): low bioavailability
  half-life: < 60 min
[7]
  effect in a rodent model of hypertrophy (in words): mild positive effects
